Source: patent publication US20170112714A1, “METHOD FOR ALLEVIATING OR TREATING ANAPHYLAXIS” (Korea Bio Medical Science Institute, priority 2015, published 2017)

How the values were obtained:
Type in all cases: in vivo
[1] = tested on: HIF-1α; test: HIF-1α protein levels in brain by Western blotting; conditions: oral ketotifen in compound 48/80 mice, p<0.05; FIG. 3 (protein and mRNA)
Description: (§1) Mice were given an intraperitoneal (i.p.) injection of compound 48/80 (6.5 mg/kg). The period used to observe mortality was based on the results of a pretest during which mice died within 30 min of administration. […] Mortality was monitored for 40 min post-injection. […] Three independent experiments were performed (n=15/group).
Western blot analysis was performed on brain tissue extracts, as previously described in (Semenza GL: Hypoxia-inducible factor 1: oxygen homeostasis and disease pathophysiology. Trends Mol Med 2001; 7:345-350).

[2] = tested on: ER-β mRNA; test: ER-β mRNA levels in brain by quantitative real-time PCR; conditions: ketotifen in compound 48/80 administered mice, p<0.05
[3] = tested on: mice; test: Compound 48/80-induced systemic anaphylaxis, mortality; conditions: ketotifen orally 1 mg/kg 1 h before compound 48/80 (6.5 mg/kg i.p.); vs compound 48/80 alone, p<0.01
Description: The original stock of male ICR (4 weeks old) was purchased from the Dae-Han Experimental Animal Center (Eumsung, Chungbuk, Republic of Korea). Animal care and experimental procedures used were approved by the Animal Care Committee of Kyung Hee University [KHUASP (SE)-12-019].
as §1
Jajinmori-jangdan and Hwimori-jangdan (rhythmic cycles) of Buk music were played by Kyung-Ja Ko. The playing conditions were as follows: Jajinmori-jangdan rhythmic cycle of twelve beats, […] (12/8 metre, ? =96 to 144), in an allegro moderated tempo and Hwimori-jangdan rhythmic cycle of 4 beats, 2+2 (4/4 metre, ? =208 to 230), in a presto tempo. The sound of a Buk is a match for the frequency of a baritone voice (139.9 to 355.2 Hz). […] Mice were exposed to Buk music or white noise for 5 min. All experiments were carried out in an environment free of other sounds. Buk music was recorded and copied using a MP3 player to ensure precisely the same music was played for mice in all treatment groups.

[4] = tested on: VEGF mRNA; test: VEGF mRNA levels in brain by quantitative real-time PCR; conditions: ketotifen in compound 48/80 mice, p<0.05
Description: as §1
Quantitative real-time PCR was performed using SYBR Green master mix and mRNA levels were analyzed using an ABI StepOne real time PCR System (Applied Biosystems, Foster City, Calif., USA). Primer sequences for the reference gene GAPDH and genes of interest were as follows: GAPDH (5′ […] 3′, SEQ ID NO.1; 5′ […] 3′, SEQ ID NO.2); HIF-1α (5′ […] 3′, SEQ ID NO.3; 5′ […] 3′, SEQ ID NO.4); VEGF (5′ […] 3′, SEQ ID NO.5; 5′ […] 3′, SEQ ID NO.6). Typical profile times used were as follows; initial step 95° C. for 10 min followed by a second step at 95° C. for 15 s and 60° C. for 30 s for 40 cycles. Levels of target mRNAs were normalized versus GAPDH. Data were analyzed using the ΔΔCT method.

[5] = tested on: TNF-α; test: TNF-α protein levels in brain by ELISA; conditions: ketotifen in compound 48/80 mice
Description: as §1
Cytokines levels in serum and brain were analyzed by ELISA, as described previously. Cytokine levels in brain were divided according to the total protein levels, which were estimated using a BCA protein assay kit (Pierce, Rockford, Ill., USA).

CN1CCC(=C2c3ccccc3CC(=O)c3sccc32)CC1 [ketotifen]
HIF-1α levels in brain [1]: significantly reduced | ER-β mRNA levels in brain [2]: significantly increased | mortality induced by compound 48/80 [3]: reduced mortality | brain VEGF mRNA levels [4]: significantly reduced | TNF-α protein levels in brain [5]: significantly reduced
